Molecules are shown by their SMILES.

One may read the pA2 as the negative logarithm of the molar antagonist concentration that doubles the agonist concentration needed for the same response. By IC50 is commonly meant the concentration that inhibits the measured activity by half. A lower IC50 goes with inhibition by little substance.

Test [1] addresses Serotonin (5-HT) receptor. In words: Affinity against 5-hydroxytryptamine receptor was determined. Type of test: protein assay, Rattus norvegicus.
Test [2] is filed under the species Rattus norvegicus. The test is described as follows: In vitro antiserotonergic activity on rat stomach fundus strip. It counts as functional.

`O=C([O-])c1ccc[n+](CCOC(=O)c2cc(Br)c[nH]2)c1` showed a pA2 in test [1] of 6.2. This compound gave a half-maximal inhibitory concentration (IC50) in test [2] of 80 µM.

Source of the values: ChEMBL document CHEMBL1159152, “A novel bromopyrrole alkaloid from the sponge Agelas longissima with antiserotonergic activity” (Bioorg Med Chem Lett, 1995).
